This is an account of results in article PMC12624434 (ACS Pharmacology & Translational Science, 2025).

Values joined by “and” are separate entries in the source; they are usually repeats but may differ in a detail not shown here. Equal entries are not always repeated. “Also recorded” adds a separate entry of the source. Where two headings read alike, the source gives them in different places. Bounds are passed on as bounds.

Data set [1] has as its target T1, NRP1 b1 domain (Homo sapiens, UniProt O14786).
T1 construct: with the purified recombinant NRP1 b1 domain immobilized on the chip; inferred from Ni-NTA capture), TEV-cleavable (cleaved yes); made in house; host or cells: E. coli Rosetta (DE3)
T1 sequence (O14786 275-424 limits assumed): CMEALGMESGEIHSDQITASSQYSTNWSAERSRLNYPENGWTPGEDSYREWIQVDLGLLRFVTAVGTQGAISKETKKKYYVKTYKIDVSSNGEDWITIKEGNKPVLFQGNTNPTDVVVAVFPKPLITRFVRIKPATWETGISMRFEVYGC
The data set is described as follows: SPR binding to immobilized NRP1 b1 domain (Biacore 4000, CM5 chip). Particulars: steady-state binding, 25 °C, mean ± SD; for Kd: read-out: SPR NRP1 b1 domain equilibrium KD. As for the experimental part: Surface Plasmon Resonance experiments were performed using a Biacore 4000 instrument at a constant temperature of 25 °C. Sensor chips, buffer stock solutions, and immobilization reagents were purchased from GE Healthcare. Recombinant human NRP1-b1 was produced in-house and recombinant human NRP1-ECD (extracellular domain) was purchased from ACRO (catalogue number NR1-H5A228). All other reagents were obtained from Sigma.
PBS containing 0.05% surfactant P20 was used as the running buffer during immobilization. NRP1-b1 was immobilized onto a CM5 chip using random amine coupling. The four flow cells were treated in the same way to optimize throughput. In summary, spots 1 and 2 were activated with the coupling reagents EDC and NHS for 10 min. NRP1-b1 at a concentration of 20 μg/mL in 10 mM sodium acetate pH 5 was injected onto the surface for 10 and 5 min in spots 1 and 2, respectively to generate surfaces with high and low density. […] The unmodified spot 3 was used as a reference.
PBS buffer containing 0.05% surfactant P20 and 3% DMSO was used as the running buffer and sample dilution buffer throughout these experiments. Dose–responses were obtained using a 2-fold sample dilution from 16 μM to 31 nM, using an injection time of 60 s. Surface regeneration between injections was not necessary, but a wash step with 1 M NaCl was included after injection of the highest concentration sample for each compound.
Binding curves were corrected for variations in DMSO concentration and normalized by molecular weight. Binding results to high and low-density surfaces were processed independently and the average ± SD is presented. K Ds reported are derived from steady-state binding responses and therefore correspond to the equilibrium binding affinity of the compounds.
For orientation: SPR reads the build-up and loss of mass on a sensor chip optically.

For data set [2], the target named is T2, NRP1-a1,b1 (Homo sapiens, UniProt O14786).
T2 sequence (O14786 273-427 limits assumed): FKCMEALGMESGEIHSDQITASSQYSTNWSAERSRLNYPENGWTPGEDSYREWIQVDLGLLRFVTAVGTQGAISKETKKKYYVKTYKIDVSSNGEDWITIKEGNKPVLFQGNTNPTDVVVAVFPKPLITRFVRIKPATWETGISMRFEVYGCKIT
Nature of the data set: bt-VEGFA cell-free competition binding assay (plate-based). The procedure: The assay was conducted as previously described. Briefly, the 96-well plates were precoated with NRP1 protein at 3 μg/mL overnight at 4 °C. On the following day, the plates were treated with blocking buffer (PBS containing 1%1% BSA) and washed three times with wash buffer (PBS containing 0.1% Tween-20). The various concentrations of compounds diluted in PBS containing 1%1% DMSO were added, followed by addition of 0.25 nM of bt-VEGFA165. After 2 h of incubation at room temperature, the plates were washed three times with wash buffer. The bound bt-VEGFA165 to NRP1 was detected by streptavidin– horseradish peroxidase conjugates and the enzyme substrate, and measured using a Tecan Genius plate reader at 450 nm with a reference wavelength at 595 nm. Nonspecific binding was determined in the absence of NRP1-coated wells of the plates.

Data set [3] is described as follows: Pharmacokinetics in mice, 2 mg/kg iv. In kind it is in vivo. Particulars: female, BALB/c, mouse, plasma; for clearance: iv, 2 mg/kg; for AUC: read-out: AUCall. The procedure: To test compound drug-like properties, selected compounds with low IC50 were further evaluated for their pharmacokinetic (PK) profile. 6–8 week-old BABL/c female mice were used. Two mg/kg of compounds was formulated in 7.5% DMSO and 92.5% PBS solution and intravenously dosed into the tail vein as a bolus. Blood samples were collected by cardiac puncture at 5, 15, 30, 60, 180, and 240 min post dosing. Plasma samples were prepared by centrifugation at 7000 rpm for 5 min, and supernatants were collected, immediately snap-frozen on dry ice and stored at −20 °C. Samples were analyzed by liquid chromatography-tandem mass spectrometry using electrospray ionization and data was analyzed by WinNonlin software.

Data set [4] is described as follows: Solubility (observation during SPR). In kind it is physicochemical. Particulars: noted with SPR data fitting.
For data set [5] the following is noted: pK BHX scale; no reference given; cited from earlier work.
Setting [6] is: plate-based assay, Figure 2D, read-out: IC50, competitive inhibition of bt-VEGFA binding to NRP1.
The mark [7] stands for this setting: 0.25 nM bt-VEGFA165, mean ± SEM, at least three independent experiments, read-out: Competition analysis bt-VEGFA, cell-free NRP1-a1,b1 IC50.

Usually IC50 stands for the concentration at which inhibition is half-maximal. What is called AUC(0-inf) is total exposure, with the tail of the curve extrapolated. Higher therefore signals more exposure. For orientation: AUC(0-t) means the area under the concentration-time curve up to a stated or last time point. Usually Cmax stands for the highest concentration seen after dosing. The term Tmax denotes the time from dosing to the highest level. As usually defined, the Vd is a proportionality between amount in the body and measured concentration, not a real space. The low end stands for little distribution into tissue, the high end for wide distribution into tissue. Usually half-life stands for the time in which the quantity being followed falls by half. What is called clearance is the volume of plasma or blood freed of the substance per unit of time. Higher therefore signals a high capacity for elimination. Take `CN(C)c1nc(CNc2cc(S(=O)(=O)Nc3ccsc3C(=O)N[C@@H](CCCNC(=N)N)C(=O)O)c3ncccc3c2)cs1.O=CO` [Compound 12g, (2S)-2-[[3-[[6-[[2-(Dimethylamino)-thiazol-4-yl]-methylamino]-8-quinolyl]-sulfonylamino]-thiophene-2-carbonyl]-amino]-5-guanidino-pentanoic Acid, Formic Acid]: the “SPR NRP1 b1 domain equilibrium KD” value in data set [1] is “did not converge; also recorded: Curve fit does not converge”. The IC50 in data set [2] (setting [6]) was under 500 nM. For the same compound, in data set [3], the total exposure AUC(0-inf) came out at 491 ng·h/mL, the AUC(0-t) worked out at 490 ng·h/mL, the peak level (Cmax) was 2050 ng/mL and the Tmax was 4.8 min. In data set [3], the Vd was determined as 0.569 L/kg, the half-life was 23.4 min, the clearance came out at 67.9 mL/min/kg and the AUC stood at 490 ng·h/mL. Also, in data set [4], the solubility result is “poor solubility”.

By Kd is commonly meant the free concentration of one partner at which half of the binding sites on the other are occupied at equilibrium, for simple one-to-one binding. For `CNc1nc(CNc2cc(S(=O)(=O)Nc3ccsc3C(=O)N[C@@H](CCCNC(=N)N)C(=O)O)c3ncccc3c2)cs1` [Compound 12j, (2S)-5-Guanidino-2-[[3-[[6-[[2-(methylamino)-thiazol-4-yl]-methylamino]-8-quinolyl]-sulfonylamino]-thiophene-2-carbonyl]-amino]-pentanoic Acid], the equilibrium dissociation constant (Kd) in data set [1] was 530 ± 140 nM. Further, the IC50 in data set [2] (setting [7]) amounted to 450 ± 10 nM. The IC50 in data set [2] (setting [6]) was under 500 nM. Moreover, in data set [2] (value in parentheses), the “Competition analysis bt-VEGFA, cell-free NRP1-a1,b1 Hill coefficient” value was determined as 1.0. Moreover, in data set [3], the total exposure AUC(0-inf) was 643 ng·h/mL, the AUC(0-t) was 640 ng·h/mL, the highest level (Cmax) was 2500 ng/mL and the Tmax came out at 4.8 min. For the same compound, in data set [3], the Vd came to 0.628 L/kg, the half-life is 36 min, the clearance came out at 51.9 mL/min/kg and the AUC came to 640 ng·h/mL.

`CN(C)c1ccc(CNc2cc(S(=O)(=O)Nc3ccsc3C(=O)N[C@@H](CCCNC(=N)N)C(=O)O)c3ncccc3c2)cn1` [Compound 12n, (2S)-2-[[3-[[6-[[6-(Dimethylamino)-3-pyridyl]-methylamino]-8-quinolyl]-sulfonylamino]-thiophene-2-carbonyl]-amino]-5-guanidino-pentanoic Acid]: the Kd in data set [1] was found to be 820 ± 100 nM.

As for `N=C(N)NCCC[C@H](NC(=O)c1sccc1NS(=O)(=O)c1cccc2cccnc12)C(=O)O` [Compound 12o, (S)-5-Guanidino-2-{[3-(quinoline-8-sulfonylamino)-thiophene-2-carbonyl]-amino}-pentanoic Acid], in data set [1], the Kd was determined as 1410 ± 160 nM. In addition, the IC50 in data set [2] (setting [7]) worked out at 900 ± 160 nM.

On to `N=C(N)NCCC[C@H](NC(=O)c1sccc1NS(=O)(=O)c1cc(-c2csc(N)n2)cc2cccnc12)C(=O)O` [Compound 12q, (S)-2-({3-[6-(2-Amino-thiazol-4-yl)-quinoline-8-sulfonylamino]-thiophene-2-carbonyl}-amino)-5-guanidino-pentanoic Acid], for which, in data set [1], the dissociation constant (Kd) was 510 nM and 2540 nM.

For the compound `CCOCC` [diethyl ether], in data set [5], the “pK BHX (hydrogen bond acceptor strength)” value is listed as 1.01.

As for `c1c[nH]cn1` [imidazole], the “pK BHX (hydrogen bond acceptor strength)” value in data set [5] is 2.72.

As to `c1ccc2ncccc2c1` [quinoline], the “pK BHX (hydrogen bond acceptor strength)” value in data set [5] was 1.89.

For `C1CCOC1` [tetrahydrofuran], the “pK BHX (hydrogen bond acceptor strength)” value in data set [5] is 1.28.
